The text below walks through data of US8871460B2, “Gamma-secretase modulatory compounds, methods for identifying same, and uses therefor” (Neurogenetic Pharmaceuticals, Inc., priority 2009, dated 2014).

The subject of test [1] is ε-cleavage of endogenous E-cadherin. The note with it: cited from earlier work.
The target in the next test is GST-Pen2 (Homo sapiens, UniProt Q9NZ42). Kind of test: Surface plasmon resonance (SPR) assay, Biacore 2000. As to conditions: equilibrium responses fit to 1:1 binding isotherm; estimated. On the procedure: A surface plasmon resonance (SPR) assay was performed using the Biacore™ 2000 system and control software (Biacore Life Sciences), essentially as described in Warnmark et al. (2001) J. Biol. Chem. 276:23397-23404. Compound 2 or L-685,458 (Sigma #L1790) were diluted 30 fold from a 25 mM stock in 100% DMSO, then each further diluted into running buffer containing 10 mM HEPES, 150 mM NaCl, 1% Triton X-100, pH 7.4. The compounds were run in a 3-fold dilution series over a GST-Pen2 or a free GST flow cell surface. The binding responses at equilibrium for each compound were fit to a 1:1 binding isotherm in order to estimate the binding affinities.

The subject of test [2] is ε-cleavage of a gamma-secretase substrate, Notch. Put plainly: Epsilon cleavage assay: Notch (NICD) in HEK293 cells overexpressing APP751 and NΔE/S2. The note with it: 18 h. Format: cell-based. The protocol: The effect of Compound 2 treatment on ε-cleavage of a gamma-secretase substrate, Notch, was assessed using an HEK293 clonal cell line overexpressing APP751 and the Notch construct NΔE/S2. The NΔE/S2 construct lacks most of the extracellular domain of Notch (Schroeter et al. (1998) Nature 393:382-386), and when cleaved by γ-secretase results in production of the Notch intracellular domain (NICD). The cells were plated in replicate 24-well dishes and treated in triplicate with 30 μM of Compound 2, 1 μM of the gamma secretase inhibitor N—[N-(3,5-Difluorophenacetyl-L-alanyl)]S-phenylglycine t-butyl ester (DAPT), or vehicle (0.12% DMSO), for 18 h. Following compound treatment, conditioned medium was collected and analyzed for levels of secreted Aβ40, which confirmed compound activity. Cell lysates were prepared and separated on a 4-20% Tris-glycine gel and probed with an anti-NICD antibody (Cell Signaling, #2421) specific for the cleaved NICD, or anti-GAPDH, which served as a loading control for each lane. NICD bands were then quantified by densitometry and an average of replicate values was compared to the vehicle controls.

Test [3] has as its system gamma-secretase. Kind of test: Immunoprecipitation and immunoblot analysis of Aβ in CHO-APPSwe conditioned medium. In kind it is cell-based, Chinese Hamster. As to conditions: 18 h, Compound 2 0.3-1000 nM, GSI 1 3-1000 nM. The protocol: For this analysis, CHO-APPSwe cells were treated with concentrations of Compound 2 ranging from 0.3 nM to 1000 nM, or with concentrations of a gamma-secretase inhibitor, GSI 1 (Tian et al. (2002) J. Biol. Chem. 277 (35), 31499-31505) ranging from 3 nM to 1000 nM, or with vehicle (0.12% DMSO), for 18 hours. The conditioned medium was collected and immunoprecipitated with the anti-Aβ1-12 antibody B436. Samples were denatured and electrophoresed on gels prepared according to Wiltfang et al. (1997) Electrophoresis 18:527-532, with the following improvements: the separating gel contained 12.5% instead of 15% acrylamide, the comb gel layer was omitted, and glycerol (25%) and DTT (100 mM) were substituted for sucrose and β-mercaptoethanol in the 2× sample buffer. Chemically synthesized Aβ1-37, Aβ1-38, Aβ1-40 and Aβ1-42 peptides (Bachem) were run as size standards. After electrophoresis, the peptides were transferred to nitrocellulose filters and immunoblotted with a biotinylated B436 antibody to detect the various Aβ alloforms.
Background: In western blotting, separated proteins are transferred to a membrane and probed.

Test [4] concerns γ-secretase-dependent cleavage of E-cadherin. Put plainly: γ-secretase-dependent cleavage of E-cadherin in A431 cells, western blotting. The note with it: overnight (16-18 h), then 6 h 1 μM staurosporine. In kind it is cell-based, Human. On the procedure:
To measure γ-secretase-dependent cleavage of E-cadherin, an assay similar to that described by Marambaud et al. (2002) EMBO 21: 1948-1956 was developed. Human A431 cells which endogenously express detectable levels of E-cadherin and cleave full length E-cadherin upon treatment with staurosporine are treated overnight (16-18 h) with either test compound or control γ-secretase inhibitor (DAPT). Cleavage of E-cadherin is induced by a 6 h treatment with 1 μM staurosporine. Cell lysates are analyzed for levels of γ-CTF by western blotting and protein bands are quantified by densitometry.

In test [5] the test system is gamma-secretase. Put plainly: Sandwich ELISA of secreted Aβ from CHO-APPSwe cells. In kind it is cell-based, Chinese Hamster. As to conditions: 18 h. On the procedure:
For ELISA analysis, CHO-APPSwe cells were seeded at a density of 100K/well in 96-well plates and allowed to adhere overnight. Medium was removed and replaced with complete DMEM medium containing either vehicle alone (DMSO) or a dose-response of Compound 2 or GSI 1 (the gamma-secretase inhibitor designated Inhibitor 1 in Tian et al. (2002) J. Biol. Chem. 277:31499-31505). Cells were incubated with compounds for 18 h, medium collected, and levels of secreted Aβ determined as described below. Cytotoxicity was determined on each well to be less than 30% using an Alamar Blue assay (see US Published Application 2005/0070538).
Secreted Aβ38 peptide was quantified using an ultra-sensitive sandwich ELISA assay kit (Meso Scale Detection catalog #K111FSE-2) and the Meso Scale Sector Imager 6000 for detection, according to the manufacturer's recommended protocol. Captured Aβ was quantified by comparing ECL signals of the samples to a standard curve (included on each plate) using synthetic Aβ prepared in complete DMEM medium. Aβ standard peptides were purchased from Bachem and stored at 0.5 mg/ml in hexafluoroisopropanol (HFIP) at −20° C.
Secreted Aβ40, Aβ42, and total Aβ were measured using specific sandwich ELISAs. Aβ peptides were captured using either an Aβ40-selective monoclonal antibody (B113), an Aβ42-selective monoclonal antibody (A387), or a total Aβ (1-x) capture monoclonal antibody raised to the amino-terminal region (B436) (see PCT publication WO 04/018997).
Briefly, 96-well white ELISA plates were coated with the appropriate capture antibody, wells were blocked with 1% BSA/TBS, and then samples were assayed in complete medium at an appropriate dilution so that the relative luminescent units (RLUs) were in the linear range of the standard curve. Following sample incubation for all ELISAs, plates were washed and exposed to an alkaline phosphatase (AP) conjugated secondary antibody. For Aβ40 and Aβ42, B436-AP was used as the second antibody in the sandwich ELISA. For the total Aβ ELISA, 4G8-biotin (Signet) (a monoclonal antibody that recognizes the Aβ17-24) was used in combination with strepavidin-AP as the detection complex. Thus, for this experiment, total Aβ includes Aβ peptides from 1-x, where x>24. Bound AP-conjugates were detected with CSPD-Sapphire II Luminescence Substrate (Applied Biosystems) and plates were read using a standard 96-well luminometer.
Captured Aβ was quantified by comparing RLU values of the samples to a standard curve (included on each plate) using synthetic Aβ prepared in complete media. Aβ standard peptides were purchased from Bachem and stored at 0.5 mg/ml in hexafluoroisopropanol (HFIP) at −20° C.

For test [6], the system named is gamma-secretase. Kind of test: Mass spectrometry (SELDI) analysis of secreted Aβ from CHO-APPSwe cells. As to conditions: 1 μM, 18 h. In kind it is cell-based, Chinese Hamster. On the procedure: CHO-APPSwe cells were plated at 1 million cells per well in 6-well dishes and treated with complete DMEM medium containing either vehicle alone (DMSO), 1 μM Compound 2, or 1 μM GSI 1. Cells were incubated for 18 h, medium collected, and levels of secreted Aβ determined by mass spectrometry. Briefly, collected medium was immunoprecipitated overnight using antibody B436 coupled directly to Sepharose. Fifty ng of Aβ1-28 peptide was spiked into the medium as an internal standard. The Sepharose beads were then washed with TBS and bound Aβ was eluted with acetonitrile/0.1% trifluoroacetic acid. Eluate (3-6 μl) was spotted on NP20 chips (Ciphergen). Once the samples were dry, 20% CHCA matrix was spotted (1 μl) and allowed to dry. Chips were read on a SELDI Ciphergen mass spectrometer and Aβ peptides were identified by expected mass and comparison to standard purchased Aβ peptides (Bachem).

The mark [7] stands for this setting: to a lesser extent than Aβ37 and Aβ38.

GST-Pen2, sequence (Q9NZ42 whole entry): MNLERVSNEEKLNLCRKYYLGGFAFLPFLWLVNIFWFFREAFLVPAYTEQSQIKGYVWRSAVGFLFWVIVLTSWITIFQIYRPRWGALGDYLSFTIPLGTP

As to `CC(C)C[C@H](NC(=O)[C@H](Cc1ccccc1)C[C@@H](O)[C@H](Cc1ccccc1)NC(=O)OC(C)(C)C)C(=O)N[C@@H](Cc1ccccc1)C(N)=O` [L-685,458], in test [1], the “effect on E-cadherin CTF1 or CTF3” value was “no effect” and the “formation of E-cadherin CTF2” value is reported as “inhibit”. Also, on GST-Pen2, the Kd (as a rule, a measure of binding affinity in units of concentration) was 1900 µM.
In the case of `C[C@H](NC(=O)Cc1cc(F)cc(F)c1)C(=O)N[C@H]1N=C(c2ccccc2)c2ccccc2N(C)C1=O` [Compound E], in test [1], the “effect on E-cadherin CTF1 or CTF3” value was “no effect” and the “formation of E-cadherin CTF2” value is recorded as “inhibit”.
For the molecule `COc1cc(C)c(Nc2nc(-c3ccc(-n4cnc(C)c4)c(F)c3)cs2)cc1C(C)C` [Compound 2], the “inhibition of Notch processing” value in test [2] (up to 30 μM) was “no detectable inhibition”. Moreover, in the test on gamma-secretase [3], the “level of Aβ1-37 in conditioned medium” value is recorded as “increase”, the “level of Aβ1-38 in conditioned medium” value was “increase” and the “level of Aβ1-40 in conditioned medium” value is “lower”. For the same molecule, in test [4], the “inhibition of E-cadherin cleavage/processing (γ-CTF)” value is reported as “no detectable inhibition”. Also, in the test on gamma-secretase [5] (ELISA), the “secreted Aβ40 level” value is listed as “concentration dependent decrease” and the “secreted Aβ42 level” value is listed as “concentration dependent decrease”. Moreover, the “total Aβ level” value in the test on gamma-secretase [5] (ELISA, Aβ 1-x, x>24) is given as “did not significantly change”. Moreover, the “secreted Aβ38 level” value in the test with gamma-secretase [5] (ultra-sensitive sandwich ELISA) is listed as “markedly increased”. In addition, the Kd on GST-Pen2 is 6.5 µM. In addition, in the test on gamma-secretase [6], the “Aβ37 compared to vehicle treated cells” value is listed as “increased” and the “Aβ38 compared to vehicle treated cells” value is recorded as “increased”. In the test on gamma-secretase [6] (setting [7]), the “Aβ33 compared to vehicle treated cells” value is listed as “increased” and the “Aβ34 compared to vehicle treated cells” value is given as “increased”.
In the case of `C[C@H](NC(=O)Cc1cc(F)cc(F)c1)C(=O)N[C@H](C(=O)OC(C)(C)C)c1ccccc1` [DAPT, N—[N-(3,5-Difluorophenacetyl-L-alanyl)]S-phenylglycine t-butyl ester, reference compound], in test [2] (1 μM), the “inhibition of NICD formation” value is listed as more than 95%. Besides, in test [4], the “inhibition of E-cadherin cleavage/processing (γ-CTF)” value is on record as “completely inhibits”. For the same molecule, in test [1], the “effect on E-cadherin CTF1 or CTF3” value was “no effect” and the “formation of E-cadherin CTF2” value is “inhibit”.
